Type in all cases: in vivo
Series [1] relates to LOLMU, Lolium multiflorum (Italian ryegrass). The series can be described thus: Greenhouse postemergence herbicidal effect (visual injury, 20-22 d). Conditions: Compound A 10 g/ha, without cloquintocet-mexyl safener.
In series [2] the test system is SASKR, Salsola kali (Russian thistle). Described as above. The method in brief:
(§1)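 Visual ratings on a 0–100% scale (0 no injury, 100 complete kill) were made 20-22 d after treatment relative to solvent-blank sprays. Applications went onto plants at the second or third true leaf stage at 187 L/ha, combining the safened pyridine carboxylate with a PS-II and optionally an HPPD herbicide.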

The subject of series [3] is VIOTR, Viola tricolor (wild pansy). The description is as above. The gist of the method:
as §1

Series [4] deals with AMARE, Amaranthus retroflexus (pigweed). The description is as above. The gist of the method: as §1
For series [5], the system named is ECHCG, Echinochloa crus-galli (barnyard grass). Described as above. The note with it: Compound A 10 g/ha, without cloquintocet-mexyl safener.
The subject of series [6] is HELAN, Helianthus annuus (common sunflower). The description is as above. The note with it: Compound A 10 g/ha, without cloquintocet-mexyl safener.
The subject of series [7] is DIGSA, Digitaria sanguinalis (large crabgrass). The description is as above. The note with it: Compound A 10 g/ha, without cloquintocet-mexyl safener.
Series [8] deals with GLXMA, Glycine max (soybean). The series is described as above. Conditions: for % visual injury, Obs: GLXMA, Compound A 10 g/ha.
Series [9] concerns HORVS, Hordeum vulgare (spring barley). The series can be described thus: Greenhouse postemergence phytotoxicity on crop (visual injury, 20-22 d). An excerpt: (§2) Greenhouse Trial Methodology—Evaluation of Postemergence Herbicidal Effect
(§3) Seeds of the desired test plant species were planted in a 90:10% v/v (volume/volume) mixture of PRO-MIX® BX (Premier Tech Horticulture, Quakertown, Pa., USA) and PROFILE®GREENS GRADE™ (Profile Products LLC, Buffalo Grove, Ill., USA) planting mixture, which typically has a pH of 5.2 to 6.2 and an organic matter content of at least 50 percent, in plastic pots with a surface area of 103.2 square centimeters (cm^2). In some aspects, to help ensure good germination and healthy plants, a fungicide treatment and/or other chemical or physical treatment was applied. The plants were grown for 7-36 days (d) in a greenhouse with an approximate 14-hour (h) photoperiod which was maintained at about 23° C. during the day and 22° C. during the night. Nutrients and water were added on a regular basis and supplemental lighting was provided with overhead metal halide 1000-Watt lamps as necessary. The plants were employed for testing when they reached the second or third true leaf stage.
(§4) Emulsifiable concentrates of each of each pyridine carboxylate herbicide (Compound A or Compound B) were prepared at 100 grams acid equivalent per liter (g ae/L). The emulsifiable concentrates also included a safener, cloquintocet-mexyl, at 120 grams active ingredient per liter (g ai/L), unless otherwise noted below. An aliquot of each emulsifiable concentrate was placed in a 25 mL glass vial and diluted with an aqueous mixture of 1.25% (v/v) ACTIROB® B esterified rapeseed oil (Bayer Crop Science, Research Triangle Park, N.C., USA) or MSO® Concentrate with LECI-TECH® methylated soybean oil (Loveland Products, Loveland, Colo., USA) to obtain concentrated stock solutions at the highest application rate for each herbicide, based upon a 12 milliliter (mL) application volume at a rate of 187 liters per hectare (L/ha). The concentrated stock solutions were further diluted with an aqueous mixture of 1.25% v/v ACTIROB® B or MSO® Concentrate with LECI-TECH® to obtain stock solutions at reduced application rates for each herbicide. Spray solutions of the herbicide combinations (Compound A or Compound B plus PS-II herbicide and optional HPPD herbicide) were prepared by adding weighed amounts or aliquots of the PS-II herbicide and optional HPPD herbicide to the stock solutions of Compound A or Compound B to form 12-mL spray solutions in two- or three-way combinations.
(§5) The spray solutions were applied to the plant material with an overhead Mandel track sprayer equipped with 8002E nozzles calibrated to deliver 187 L/ha over an application area of 0.503 square meters (m^2) at a spray height of 18 inches ([…] centimeters (cm)) above the average plant canopy. Control plants were sprayed in the same manner with the solvent blank. All pyridine carboxylate herbicide (component a) application rates are given as “g ae/ha” and all PS II inhibitor herbicide (component b) and HPPD inhibitor herbicide (component c) application rates are given as “g ai/ha.”
(§6) The treated plants and control plants were placed in a greenhouse as described above and watered by sub-irrigation to prevent wash-off of the test compounds. After 20-22 d, the condition of the test plants as compared with that of the control plants was determined visually and scored on a scale of 0 to 100 percent where 0 corresponds to no injury and 100 corresponds to complete kill.

Series [10] concerns TRZAS, Triticum aestivum (spring wheat). The description is as above.
From the text: as §2, §3, §4, §5, §6

Series [11] concerns ZEAMX, Zea mays (maize). The series is described as above. The note with it: Compound A 10 g/ha.
From the text: as §2, §3, §4, §5, §6

Values joined by “and” are separate entries in the source; they are usually repeats but may differ in a detail not shown here. Identical values can stand only once.

With `N#CCOC(=O)c1nc(-c2ccc3cc[nH]c3c2F)c(F)c(N)c1Cl` [Compound A, cyanomethyl 4-amino-3-chloro-5-fluoro-6-(7-fluoro-1H-indol-6-yl)pyridine-2-carboxylate], the “% visual injury, Obs” value in series [1] came out at 0%; in series [3] (VIOTR, Compound A 10 g/ha, without cloquintocet-mexyl safener), 15%; in [4] (AMARE, Compound A 10 g/ha), 88%; in series [5], 58%; in series [6], 100%; in series [7], 8%. Besides, the “% visual injury, Obs” value was found to be 90% in series [8]; 85% in [8] (without cloquintocet-mexyl safener); 3% in series [10] (TRZAS, Compound A 10 g/ha); 0% in [11]. Moreover, the visual injury is 60% and 45% in series [2] (7.5 g ae/ha alone); 63% and 60% in series [2] (10 g ae/ha alone); 45% in [3] (7.5 g ae/ha alone); 15% in series [3] (10 g ae/ha alone); 78% and 70% and 90% in series [4] (7.5 g ae/ha alone); 73% and 90% and 85% in series [4] (10 g ae/ha alone). Further, the visual injury in series [8] (7.5 g ae/ha alone) is 80%; in series [8] (10 g ae/ha alone), 90%; in series [9] (7.5 g ae/ha alone) it was 0% and 8%; in series [9] (10 g ae/ha alone), 0%; in [10] (7.5 g ae/ha alone), 0%; in [10] (10 g ae/ha alone) it was 0%.
